Measured values: patent US11654140B2, “Treatment of ocular inflammatory diseases using laquinimod” (Active Biotech AB, priority 2012, dated 2023)

Legend:
[1] = Animal body weight and adverse clinical effects, ovalbumin study (Example 2); format: in vivo; conditions: laquinimod-treated mice, multiple topical administrations
Description: This weight loss is commonly observed during chronic corticosteroid treatments.

[2] = test system: S-antigen-induced uveitis in albino rats; experiment: Ocular vs oral laquinimod in S-antigen-induced uveitis in albino rats, histological analysis (Example 10); format: in vivo, rat; conditions: for Histological ocular evaluation, % Inhibition: Day 19
[3] = test system: S-antigen-induced experimental autoimmune uveitis (EAU) in rats; experiment: S-antigen-induced experimental autoimmune uveitis in rats (EAU model), slit lamp clinical score (Example 1); format: in vivo, rat; conditions: for Slit lamp ocular evaluation of both eyes, Incidence % / Slit lamp ocular evaluation of both eyes, mean clinical score: 10 μl once daily both eyes from Day 7; for Slit lamp ocular evaluation of both eyes, mean clinical score: score 0-6
Protocol: A 1% (10 mg/ml) and a 5% (50 mg/ml) solution of laquinimod sodium were prepared in sterile water. Dissolution of laquinimod powder was achieved by shaking, stirring, or low-speed vortex. The solutions were stored for up to 2 weeks at 2-8° C. and up to 24 hours at room temperature. Laquinimod solutions were prepared under light protection and were protected from light for the duration of the experiment. […] One 100 mg/4 ml in olive oil dose was prepared every 2 days and stored at room temperature.
Thirty two female albino Lewis rats were randomly divided into four (4) groups of eight (8) rats. Ocular inflammation was induced at Day 1 by injection of 100 μl of human S-antigen (100 μg) in Freud's complete adjuvant (4 mg/ml) into the footpad of each rat, and an intraperitoneal injection of 1 μg/100 μl pertussis toxin.
Beginning on Day 7 until the end of the study, each animal group was treated with a test solution in both eyes as shown in Table 1:
Both eyes of each rat were examined with a slit-lamp at baseline and then every 2 days from Day 10 to the end of the study. Fifteen minutes prior to each examination, 10 μl of Mydriaticum (0.5% tropicamide) was instilled for papillary dilatation.
The effect of test material and reference material on ocular inflammation was measured with slit lamp evaluation and scored using the clinical scoring as shown in Table 3: […]

[4] = test system: subject suffering from allergic conjunctivitis; experiment: Laquinimod for treating allergic conjunctivitis (Example 8); format: in vivo; conditions: 0.2 mg-0.5 mg laquinimod/day
Protocol: (§1) In the examples 4-9 below, the administration of the composition is once daily. The administration can be repeated daily for a period of one, two, three or four days, up to 14 days, or longer as necessary.
A laquinimod composition as described herein is administered to a subject suffering from allergic conjunctivitis at 0.2 mg-0.5 mg laquinimod/day. The administration of the composition is effective to treat the subject suffering from allergic conjunctivitis. The administration of the composition is also effective to reduce intraocular inflammation in the subject. The administration of the composition is also effective to inhibit late ocular anaphylaxis in the subject. The administration of the composition is also effective reduce eosinophil infiltration into the conjunctiva of the subject.

[5] = test system: subject suffering from an inflammation of the orbital tissue, the lacrimal apparatus, the eyelid, the cornea, the retina or the optic pathway; experiment: Laquinimod for treating inflammation in the eye (Example 7); format: in vivo; conditions: laquinimod composition, once daily
Protocol: as §1
A laquinimod composition as described herein is administered to a subject suffering from an inflammation of the orbital tissue, the lacrimal apparatus, the eyelid, the cornea, the retina or the optic pathway in the eye. The administration of the composition is effective to treat the subject suffering from the inflammation. The administration of the composition is also effective to reduce intraocular inflammation in the subject.

[6] = test system: subject suffering from uveitis; experiment: Laquinimod for treating uveitis (Example 4); format: in vivo; conditions: laquinimod composition administered to the eye, once daily
Protocol: In the examples 4-9 below, the administration of the composition is once daily. The administration can be repeated daily for a period of one, two, three or four days, up to 14 days, or longer as necessary. A laquinimod composition as described herein is administered to the eye of a subject suffering from uveitis. The administration of the composition is effective to treat the subject suffering from uveitis. The administration of the composition is also effective to reduce intraocular inflammation in the subject. The administration of the composition is also effective to reduce retina tissue destruction in the subject.

[7] = 1%, 1× 10 μl instillation/day for 7 days in both eyes
[8] = 1%, 1×/day for 7 days, 1 mL/kg, per os
[9] = 5%, 1× 10 μl instillation/day for 7 days in both eyes
[10] = 5%, 1×/day for 7 days, 1 mL/kg, per os

In the case of CCN(C(=O)c1c(O)c2c(Cl)cccc2n(C)c1=O)c1ccccc1 [Laquinimod, laquinimod], the adverse clinical effect [1] is reported as “No adverse clinical effect was observed”, the “Histological ocular evaluation (scale 0-7) Both Eyes/Day 19, mean” value [2, 7] is reported as 2.8 and the “Histological ocular evaluation, % Inhibition” value [2, 7] is reported as 7.00%. For the same compound, the “Histological ocular evaluation (scale 0-7) Both Eyes/Day 19, mean” value [2, 8] was 2.3, the “Histological ocular evaluation, % Inhibition” value [2, 8] was 23.00% and the “Histological ocular evaluation (scale 0-7) Both Eyes/Day 19, mean” value [2, 9] was 1.8. For the same compound, the “Histological ocular evaluation, % Inhibition” value [2, 9] was 40.00%, the “Histological ocular evaluation (scale 0-7) Both Eyes/Day 19, mean” value [2, 10] was 1.2 and the “Histological ocular evaluation, % Inhibition” value [2, 10] was 60.00%. The “Slit lamp ocular evaluation of both eyes, Incidence %” value ([3]; 1% Laquinimod, Baseline) was 0.0%, the “Slit lamp ocular evaluation of both eyes, mean clinical score” value ([3]; 1% Laquinimod, Baseline) was 0.0 and the “Slit lamp ocular evaluation of both eyes, Incidence %” value ([3]; 1% Laquinimod, Day 10) was 6.3%. The “Slit lamp ocular evaluation of both eyes, mean clinical score” value ([3]; 1% Laquinimod, Day 10) was 0.1, the “Slit lamp ocular evaluation of both eyes, Incidence %” value ([3]; 1% Laquinimod, Day 12) was 6.3% and the “Slit lamp ocular evaluation of both eyes, mean clinical score” value ([3]; 1% Laquinimod, Day 12) was 0.1. The “Slit lamp ocular evaluation of both eyes, Incidence %” value ([3]; 1% Laquinimod, Day 14) was 18.8%, the “Slit lamp ocular evaluation of both eyes, mean clinical score” value ([3]; 1% Laquinimod, Day 14) was 0.8 and the “Slit lamp ocular evaluation of both eyes, Incidence %” value ([3]; 1% Laquinimod, Day 16) was 31.3%. For the same compound, the “Slit lamp ocular evaluation of both eyes, mean clinical score” value ([3]; 1% Laquinimod, Day 16) was 1.3, the “Slit lamp ocular evaluation of both eyes, mean clinical score” value ([3]; 1% Laquinimod, Day 16, listed as laquinimod) was 1.3±2.1 and the “Slit lamp ocular evaluation of both eyes, Incidence %” value ([3]; 5% Laquinimod, Baseline) was 0.0%. For the same compound, the “Slit lamp ocular evaluation of both eyes, mean clinical score” value ([3]; 5% Laquinimod, Baseline) was 0.0, the “Slit lamp ocular evaluation of both eyes, Incidence %” value ([3]; 5% Laquinimod, Day 10) was 0.0% and the “Slit lamp ocular evaluation of both eyes, mean clinical score” value ([3]; 5% Laquinimod, Day 10) was 0.0. The “Slit lamp ocular evaluation of both eyes, Incidence %” value ([3]; 5% Laquinimod, Day 12) was 0.0%, the “Slit lamp ocular evaluation of both eyes, mean clinical score” value ([3]; 5% Laquinimod, Day 12) was 0.0 and the “Slit lamp ocular evaluation of both eyes, Incidence %” value ([3]; 5% Laquinimod, Day 14) was 6.3%. For the same compound, the “Slit lamp ocular evaluation of both eyes, mean clinical score” value ([3]; 5% Laquinimod, Day 14) was 0.3, the “Slit lamp ocular evaluation of both eyes, Incidence %” value ([3]; 5% Laquinimod, Day 16) was 12.5% and the “Slit lamp ocular evaluation of both eyes, mean clinical score” value ([3]; 5% Laquinimod, Day 16) was 0.6. For the same compound, the “Slit lamp ocular evaluation of both eyes, mean clinical score” value ([3]; 5% Laquinimod, Day 16, listed as laquinimod) was 0.6±1.5, the “rats tested that demonstrated no intraocular inflammation” value ([3]; 5% laquinimod solution once per day, Day 16) was “Six out of eight” and the “treat the subject suffering from allergic conjunctivitis” value [4] was “effective”. For the same compound, the “inhibit late ocular anaphylaxis in the subject” value ([4]; allergic conjunctivitis) was “effective”, the “reduce eosinophil infiltration into the conjunctiva of the subject” value ([4]; allergic conjunctivitis) was “effective” and the “reduce intraocular inflammation in the subject” value (from here on “reduce intraocular inflammation”) ([4]; allergic conjunctivitis) was “effective”. The “reduce intraocular inflammation” value ([5]; inflammation in the eye) was “effective”, the “treat the subject suffering from the inflammation” value ([5]; inflammation of orbital tissue, lacrimal apparatus, eyelid, cornea, retina or optic pathway) was “effective” and the “treat the subject suffering from uveitis” value [6] was “effective”. The “reduce intraocular inflammation” value ([6]; uveitis) was “effective” and the “reduce retina tissue destruction in the subject” value ([6]; uveitis) was “effective”.
